IC50 data for 7 compounds are collected here from patent US20260297081A1, “COMPOUNDS AND METHODS OF TREATING CANCERS” (Cullgen Inc., priority 2023, published 2026).

In the assay the test system is MCF7 cells. Put plainly: Anti-proliferation (viability) of MCF7 cells (Table 7, FIG. 2B). To be noted: Homo sapiens, MCF7, MCF7 cells, 3-6 days, 10-point serial dilution; read-out: GI IC50 in MCF-7. It is filed as cell-based.

Usually IC50 stands for the midpoint of a concentration-inhibition curve.

Take `[2H]C([2H])([2H])Nc1ccc(C(=O)Nc2ccc(N(C)C)nn2)c(NC2CC3(C2)CC(C(=O)N2CCC4(CCN(c5ccc(Nc6ncc7c(C)c(C(C)=O)c(=O)n(C8CCCC8)c7n6)nc5)CC4)C2)C3)n1` (stereo not shown) [CPD-380, 2-((6-(8-(6-((6-acetyl-8-cyclopentyl-5-methyl-7-oxo-7,8-dihydropyrido[2,3-d]pyrimidin-2-yl)amino)pyridin-3-yl)-2,8-diazaspiro[4.5]decane-2-carbonyl)spiro[3.3]heptan-2-yl)amnion)-N-(6-(dimethylamino)pyridazin-3-yl)-6-((methyl-d3)amnion)nicotinamide]: the IC50 is > 0.1 µM. For `CNc1ccc(C(=O)Nc2ccc(N(C)C)nn2)c(NC2CC(C(=O)N3CCC4(CCN(c5ccc(Nc6ncc7c(C)c(C(C)=O)c(=O)n(C8CCCC8)c7n6)nc5)CC4)C3)C2)n1` (stereo not shown) [CPD-381, 2-((3-(8-(6-((6-acetyl-8-cyclopentyl-5-methyl-7-oxo-7,8-dihydropyrido[2,3-d]pyrimidin-2-yl)amino)pyridin-3-yl)-2,8-diazaspiro[4.5]decane-2-carbonyl)cyclobutyl)amino)-N-(6-(dimethylamino)pyridazin-3-yl)-6-(methylamino)nicotinamide] the value was > 0.1 µM; for `CC(=O)c1c(C)c2cnc(Nc3ccc(N4CCC(NCC(=O)NC5CC(Nc6nc(NC(C)C)ccc6C(=O)Nc6ccc(N(C)C)nn6)C5)CC4)cn3)nc2n(C2CCCC2)c1=O` (stereo not shown) [CPD-382, 2-((3-(2-((1-(6-((6-acetyl-8-cyclopentyl-5-methyl-7-oxo-7,8-dihydropyrido[2,3-d]pyrimidin-2-yl)amino)pyridin-3-yl)piperidin-4-yl)amino)acetamido)cyclobutyl)amino)-N-(6-(dimethylamino)pyridazin-3-yl)-6-(isopropylamino)nicotinamide], 0.05 to 0.1 µM; for `[2H]C([2H])([2H])Nc1ccc(C(=O)Nc2ccc(N(C)C)nn2)c(NC2CC23CCN(C(=O)CC(C)N2CCN(c4ccc(Nc5ncc6c(C)c(C(C)=O)c(=O)n(C7CCCC7)c6n5)nc4)CC2)CC3)n1` (stereo not shown) [CPD-383, 2-((6-(3-(4-(6-((6-acetyl-8-cyclopentyl-5-methyl-7-oxo-7,8-dihydropyrido[2,3-d]pyrimidin-2-yl)amino)pyridin-3-yl)piperazin-1-yl)butanoyl)-6-azaspiro[2.5]octan-1-yl)amino)-N-(6-(dimethylamino)pyridazin-3-yl)-6-((methyl-d3)amino)nicotinamide], > 0.1 µM. For `CNc1ccc(C(=O)Nc2ccc(N(C)C)nn2)c(NC2CCC(C(=O)N3CCC4(CCN(c5ccc(Nc6ncc7c(C)c(C(C)=O)c(=O)n(C8CCCC8)c7n6)nc5)CC4)C3)CC2)n1` (stereo not shown) [CPD-385, 2-((4-(8-(6-((6-acetyl-8-cyclopentyl-5-methyl-7-oxo-7,8-dihydropyrido[2,3-d]pyrimidin-2-yl)amino)pyridin-3-yl)-2,8-diazaspiro[4.5]decane-2-carbonyl)cyclohexyl)amino)-N-(6-(dimethylamino)pyridazin-3-yl)-6-(methylamino)nicotinamide] the value was 0.05 to 0.1 µM; for `CC(=O)c1c(C)c2cnc(Nc3ccc(CC4CCN(CC(=O)N5CCC(Nc6nc(NC(C)C)ccc6C(=O)Nc6ccc(N(C)C)nn6)CC5)CC4)cn3)nc2n(C2CCCC2)c1=O` [CPD-386, 2-((1-(2-(4-((6-((6-acetyl-8-cyclopentyl-5-methyl-7-oxo-7,8-dihydropyrido[2,3-d]pyrimidin-2-yl)amino)pyridin-3-yl)methyl)piperidin-1-yl)acetyl)piperidin-4-yl)amino)-N-(6-(dimethylamino)pyridazin-3-yl)-6-(isopropylamino)nicotinamide], > 0.1 µM.

On to `CC(=O)c1c(C)c2cnc(Nc3ccc(N4CCN(CC(=O)NC(C)(C)C5CC(Nc6nc(NC(C)C)ccc6C(=O)Nc6cc(C)n(C)n6)C5)CC4)cn3)nc2n(C2CCCC2)c1=O` (stereo not shown) [CPD-387, 2-((3-(2-(2-(4-(6-((6-acetyl-8-cyclopentyl-5-methyl-7-oxo-7,8-dihydropyrido[2,3-d]pyrimidin-2-yl)amino)pyridin-3-yl)piperazin-1-yl)acetamido)propan-2-yl)cyclobutyl)amino)-N-(1,5-dimethyl-1H-pyrazol-3-yl)-6-(isopropylamino)nicotinamide], for which the half-maximal inhibitory concentration (IC50) was 0.05 to 0.1 µM.
